According to patent publication US10870647B2, “Imidazopyridine derivative, method for preparing same, and pharmaceutical composition containing same as active ingredient for preventing or treating cancer” (DAEGU-GYEONGBUK MEDICAL INNOVATION FOUNDATION, priority 2016, dated 2020):

Key:
Assay in all cases: Kinase selectivity, scanMAX Kinase assay panel (DiscoverX), % control at 1 uM
Type in all cases: binding
[1] = molecular target: T1, scanMAX Kinase assay panel (Homo sapiens, UniProt P10721, T670I/V559D); conditions: KIT (V559D, T670I); 1 uM; read-out: Percent Control (%)
T1 construct: purchased DiscoverX
T1 sequence (P10721 26-976 V559D/T670I): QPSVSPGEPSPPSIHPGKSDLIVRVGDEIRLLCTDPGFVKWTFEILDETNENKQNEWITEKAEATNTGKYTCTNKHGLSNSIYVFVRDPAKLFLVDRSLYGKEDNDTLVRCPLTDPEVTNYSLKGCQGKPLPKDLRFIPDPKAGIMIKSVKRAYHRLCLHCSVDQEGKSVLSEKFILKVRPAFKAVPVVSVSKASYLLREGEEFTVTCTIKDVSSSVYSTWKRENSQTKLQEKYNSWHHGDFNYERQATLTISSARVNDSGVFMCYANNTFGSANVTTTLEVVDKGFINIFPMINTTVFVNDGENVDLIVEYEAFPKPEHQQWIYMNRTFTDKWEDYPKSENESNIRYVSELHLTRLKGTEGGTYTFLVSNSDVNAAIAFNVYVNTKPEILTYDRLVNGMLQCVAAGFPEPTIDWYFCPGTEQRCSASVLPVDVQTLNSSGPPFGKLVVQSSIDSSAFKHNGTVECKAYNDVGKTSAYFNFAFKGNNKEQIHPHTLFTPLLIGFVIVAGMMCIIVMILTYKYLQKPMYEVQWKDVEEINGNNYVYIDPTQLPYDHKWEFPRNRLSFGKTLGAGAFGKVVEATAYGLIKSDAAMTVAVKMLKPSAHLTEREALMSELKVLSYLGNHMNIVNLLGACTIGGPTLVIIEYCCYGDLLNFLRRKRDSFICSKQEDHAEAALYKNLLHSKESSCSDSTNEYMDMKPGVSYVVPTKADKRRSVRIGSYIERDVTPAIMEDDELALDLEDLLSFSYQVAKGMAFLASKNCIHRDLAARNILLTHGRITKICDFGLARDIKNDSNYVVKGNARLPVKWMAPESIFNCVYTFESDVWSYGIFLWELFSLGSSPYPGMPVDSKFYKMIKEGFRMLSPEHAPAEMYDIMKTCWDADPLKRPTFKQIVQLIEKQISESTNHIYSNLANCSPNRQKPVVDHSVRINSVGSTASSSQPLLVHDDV
Summary of the method: (§1)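 1 uM cpd (DMSO) per kinase; % ctrl = [cpd − pos ctrl]/[neg ctrl − pos ctrl] × 100; hit if <35.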

[2] = molecular target: T2, scanMAX Kinase assay panel (Homo sapiens, UniProt Q8TDR2); conditions: STK35; 1 uM; read-out: Percent Control (%)
T2 construct: purchased DiscoverX
T2 sequence (Q8TDR2 whole entry): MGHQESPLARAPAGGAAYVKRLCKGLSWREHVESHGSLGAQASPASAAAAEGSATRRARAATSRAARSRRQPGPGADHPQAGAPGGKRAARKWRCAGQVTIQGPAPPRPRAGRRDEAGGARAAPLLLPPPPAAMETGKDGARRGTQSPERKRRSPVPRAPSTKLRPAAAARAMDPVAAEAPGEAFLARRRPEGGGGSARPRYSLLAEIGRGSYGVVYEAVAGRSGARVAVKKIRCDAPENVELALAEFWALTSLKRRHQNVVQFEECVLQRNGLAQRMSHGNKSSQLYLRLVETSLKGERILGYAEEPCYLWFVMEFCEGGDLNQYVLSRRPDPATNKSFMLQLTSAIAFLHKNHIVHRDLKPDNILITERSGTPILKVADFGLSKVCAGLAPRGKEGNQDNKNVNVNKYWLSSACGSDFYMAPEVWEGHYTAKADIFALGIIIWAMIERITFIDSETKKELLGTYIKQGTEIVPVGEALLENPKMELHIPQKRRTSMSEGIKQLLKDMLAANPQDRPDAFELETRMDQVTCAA
Summary of the method: as §1

[3] = molecular target: T3, scanMAX Kinase assay panel (Homo sapiens, UniProt Q9Y2U5); conditions: MAP3K2; 1 uM; read-out: Percent Control (%)
T3 construct: purchased DiscoverX
T3 sequence (Q9Y2U5 1-619): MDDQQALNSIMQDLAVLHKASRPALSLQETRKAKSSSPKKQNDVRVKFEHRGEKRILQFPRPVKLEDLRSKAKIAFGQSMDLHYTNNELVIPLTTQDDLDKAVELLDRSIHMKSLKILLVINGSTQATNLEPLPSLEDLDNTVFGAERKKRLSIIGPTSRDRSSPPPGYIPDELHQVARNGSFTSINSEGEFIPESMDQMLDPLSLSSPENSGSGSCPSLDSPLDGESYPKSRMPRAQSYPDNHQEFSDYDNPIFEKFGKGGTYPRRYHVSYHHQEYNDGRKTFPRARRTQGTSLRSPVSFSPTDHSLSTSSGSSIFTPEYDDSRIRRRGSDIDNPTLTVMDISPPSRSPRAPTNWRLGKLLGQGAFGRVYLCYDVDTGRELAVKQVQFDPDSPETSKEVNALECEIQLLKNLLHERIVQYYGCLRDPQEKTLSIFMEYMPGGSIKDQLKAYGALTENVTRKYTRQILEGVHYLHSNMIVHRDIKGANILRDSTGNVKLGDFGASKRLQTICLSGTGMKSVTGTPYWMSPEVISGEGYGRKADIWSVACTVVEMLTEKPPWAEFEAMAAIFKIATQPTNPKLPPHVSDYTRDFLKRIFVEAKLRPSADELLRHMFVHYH
Summary of the method: as §1

[4] = molecular target: T4, scanMAX Kinase assay panel (Homo sapiens, UniProt Q9Y243); conditions: AKT3; 1 uM; read-out: Percent Control (%)
T4 construct: purchased DiscoverX
T4 sequence (Q9Y243 whole entry): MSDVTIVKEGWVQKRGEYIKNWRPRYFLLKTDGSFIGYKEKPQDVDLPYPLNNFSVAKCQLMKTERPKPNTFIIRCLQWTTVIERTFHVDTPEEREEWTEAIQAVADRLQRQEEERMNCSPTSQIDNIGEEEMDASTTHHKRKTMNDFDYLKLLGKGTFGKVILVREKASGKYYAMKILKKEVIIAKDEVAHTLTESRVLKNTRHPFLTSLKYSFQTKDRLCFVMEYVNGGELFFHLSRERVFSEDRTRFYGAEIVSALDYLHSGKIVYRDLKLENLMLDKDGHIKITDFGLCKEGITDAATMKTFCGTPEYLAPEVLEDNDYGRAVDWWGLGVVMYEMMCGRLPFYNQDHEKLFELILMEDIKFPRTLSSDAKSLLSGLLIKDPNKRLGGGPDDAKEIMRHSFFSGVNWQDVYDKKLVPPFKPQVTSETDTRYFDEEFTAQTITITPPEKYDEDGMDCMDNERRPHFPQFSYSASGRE
Summary of the method: as §1

[5] = molecular target: T5, scanMAX Kinase assay panel (Homo sapiens, UniProt P36888, R834Q); conditions: FLT3 (R834Q); 1 uM; read-out: Percent Control (%)
T5 construct: purchased DiscoverX
T5 sequence (P36888 27-993 R834Q): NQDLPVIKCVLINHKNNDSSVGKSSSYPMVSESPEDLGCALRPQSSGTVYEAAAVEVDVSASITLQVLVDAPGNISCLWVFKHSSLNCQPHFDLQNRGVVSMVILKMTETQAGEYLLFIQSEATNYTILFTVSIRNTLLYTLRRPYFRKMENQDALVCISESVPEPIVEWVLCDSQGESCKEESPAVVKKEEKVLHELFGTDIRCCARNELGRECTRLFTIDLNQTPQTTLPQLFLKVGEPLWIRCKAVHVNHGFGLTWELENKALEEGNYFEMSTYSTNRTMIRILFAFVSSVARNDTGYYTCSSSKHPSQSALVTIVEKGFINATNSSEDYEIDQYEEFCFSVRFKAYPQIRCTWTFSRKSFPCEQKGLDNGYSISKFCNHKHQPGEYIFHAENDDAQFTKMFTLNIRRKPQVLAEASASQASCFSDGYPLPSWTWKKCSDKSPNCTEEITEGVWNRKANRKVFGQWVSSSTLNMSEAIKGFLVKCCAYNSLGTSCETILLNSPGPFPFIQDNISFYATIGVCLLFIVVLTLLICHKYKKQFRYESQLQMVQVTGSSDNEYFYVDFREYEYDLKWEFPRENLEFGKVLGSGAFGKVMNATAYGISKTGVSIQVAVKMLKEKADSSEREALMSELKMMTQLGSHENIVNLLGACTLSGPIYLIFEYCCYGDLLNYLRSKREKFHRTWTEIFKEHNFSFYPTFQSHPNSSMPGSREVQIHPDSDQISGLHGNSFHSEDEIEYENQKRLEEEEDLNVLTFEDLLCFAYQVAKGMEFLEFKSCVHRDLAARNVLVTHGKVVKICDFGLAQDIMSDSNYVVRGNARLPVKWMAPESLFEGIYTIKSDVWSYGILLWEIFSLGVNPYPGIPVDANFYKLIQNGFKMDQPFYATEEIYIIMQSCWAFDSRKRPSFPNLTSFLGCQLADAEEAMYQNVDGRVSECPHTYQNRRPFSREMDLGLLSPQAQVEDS
Summary of the method: as §1

[6] = molecular target: T6, scanMAX Kinase assay panel (Homo sapiens, UniProt O43683); conditions: BUB1; 1 uM; read-out: Percent Control (%)
T6 construct: purchased DiscoverX
T6 sequence (O43683 whole entry): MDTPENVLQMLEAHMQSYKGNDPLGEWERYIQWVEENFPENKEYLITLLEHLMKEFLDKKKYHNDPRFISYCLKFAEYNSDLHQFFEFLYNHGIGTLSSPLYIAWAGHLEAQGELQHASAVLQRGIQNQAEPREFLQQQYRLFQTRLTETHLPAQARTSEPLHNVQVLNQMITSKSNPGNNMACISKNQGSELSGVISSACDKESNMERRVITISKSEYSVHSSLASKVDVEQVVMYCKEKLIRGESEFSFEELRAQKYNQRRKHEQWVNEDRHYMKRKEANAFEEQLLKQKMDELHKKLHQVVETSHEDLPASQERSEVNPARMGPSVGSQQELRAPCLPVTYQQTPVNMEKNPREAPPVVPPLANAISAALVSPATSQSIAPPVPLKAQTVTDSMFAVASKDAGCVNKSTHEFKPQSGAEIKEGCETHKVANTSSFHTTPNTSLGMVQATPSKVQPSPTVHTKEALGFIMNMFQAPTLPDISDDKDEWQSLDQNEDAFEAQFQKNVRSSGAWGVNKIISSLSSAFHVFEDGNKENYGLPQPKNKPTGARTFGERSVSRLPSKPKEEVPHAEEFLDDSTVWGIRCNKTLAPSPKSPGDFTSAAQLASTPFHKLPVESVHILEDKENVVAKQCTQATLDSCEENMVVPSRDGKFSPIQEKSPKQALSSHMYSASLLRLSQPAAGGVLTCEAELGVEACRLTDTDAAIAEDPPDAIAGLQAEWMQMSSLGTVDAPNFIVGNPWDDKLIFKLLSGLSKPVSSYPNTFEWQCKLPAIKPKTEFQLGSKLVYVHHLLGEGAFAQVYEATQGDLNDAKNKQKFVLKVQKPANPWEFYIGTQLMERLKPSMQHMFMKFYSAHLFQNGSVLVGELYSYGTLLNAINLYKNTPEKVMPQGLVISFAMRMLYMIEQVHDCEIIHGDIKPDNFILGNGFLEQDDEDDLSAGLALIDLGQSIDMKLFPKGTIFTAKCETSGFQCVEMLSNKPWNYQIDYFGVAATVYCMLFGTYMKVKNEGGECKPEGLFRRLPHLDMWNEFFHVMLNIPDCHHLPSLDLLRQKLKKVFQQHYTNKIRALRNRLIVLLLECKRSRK
Summary of the method: as §1

[7] = molecular target: T7, scanMAX Kinase assay panel (Homo sapiens, UniProt Q96SB4); conditions: SRPK1; 1 uM; read-out: Percent Control (%)
T7 construct: purchased DiscoverX
T7 sequence (Q96SB4 whole entry): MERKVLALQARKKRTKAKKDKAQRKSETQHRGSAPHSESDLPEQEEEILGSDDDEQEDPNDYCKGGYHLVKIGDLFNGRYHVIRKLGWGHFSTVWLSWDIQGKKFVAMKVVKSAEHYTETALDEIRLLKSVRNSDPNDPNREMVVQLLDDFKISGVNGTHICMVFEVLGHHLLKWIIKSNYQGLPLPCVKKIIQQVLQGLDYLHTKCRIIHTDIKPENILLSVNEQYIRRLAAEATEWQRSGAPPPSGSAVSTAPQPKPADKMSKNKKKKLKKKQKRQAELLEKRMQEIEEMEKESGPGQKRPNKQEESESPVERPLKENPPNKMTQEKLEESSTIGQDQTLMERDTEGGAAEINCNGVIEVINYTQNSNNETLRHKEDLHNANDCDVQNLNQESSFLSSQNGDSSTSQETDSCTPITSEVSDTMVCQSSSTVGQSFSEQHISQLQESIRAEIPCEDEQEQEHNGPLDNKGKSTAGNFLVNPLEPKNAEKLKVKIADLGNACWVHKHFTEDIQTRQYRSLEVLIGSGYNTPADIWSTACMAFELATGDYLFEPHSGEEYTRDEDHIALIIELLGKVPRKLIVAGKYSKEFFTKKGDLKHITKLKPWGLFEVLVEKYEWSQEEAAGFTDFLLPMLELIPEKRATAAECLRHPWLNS
Summary of the method: as §1

[8] = molecular target: T8, scanMAX Kinase assay panel (Homo sapiens, UniProt P00533, L861Q); conditions: EGFR (L861Q); 1 uM; read-out: Percent Control (%)
T8 construct: purchased DiscoverX
T8 sequence (P00533 25-1210 L861Q): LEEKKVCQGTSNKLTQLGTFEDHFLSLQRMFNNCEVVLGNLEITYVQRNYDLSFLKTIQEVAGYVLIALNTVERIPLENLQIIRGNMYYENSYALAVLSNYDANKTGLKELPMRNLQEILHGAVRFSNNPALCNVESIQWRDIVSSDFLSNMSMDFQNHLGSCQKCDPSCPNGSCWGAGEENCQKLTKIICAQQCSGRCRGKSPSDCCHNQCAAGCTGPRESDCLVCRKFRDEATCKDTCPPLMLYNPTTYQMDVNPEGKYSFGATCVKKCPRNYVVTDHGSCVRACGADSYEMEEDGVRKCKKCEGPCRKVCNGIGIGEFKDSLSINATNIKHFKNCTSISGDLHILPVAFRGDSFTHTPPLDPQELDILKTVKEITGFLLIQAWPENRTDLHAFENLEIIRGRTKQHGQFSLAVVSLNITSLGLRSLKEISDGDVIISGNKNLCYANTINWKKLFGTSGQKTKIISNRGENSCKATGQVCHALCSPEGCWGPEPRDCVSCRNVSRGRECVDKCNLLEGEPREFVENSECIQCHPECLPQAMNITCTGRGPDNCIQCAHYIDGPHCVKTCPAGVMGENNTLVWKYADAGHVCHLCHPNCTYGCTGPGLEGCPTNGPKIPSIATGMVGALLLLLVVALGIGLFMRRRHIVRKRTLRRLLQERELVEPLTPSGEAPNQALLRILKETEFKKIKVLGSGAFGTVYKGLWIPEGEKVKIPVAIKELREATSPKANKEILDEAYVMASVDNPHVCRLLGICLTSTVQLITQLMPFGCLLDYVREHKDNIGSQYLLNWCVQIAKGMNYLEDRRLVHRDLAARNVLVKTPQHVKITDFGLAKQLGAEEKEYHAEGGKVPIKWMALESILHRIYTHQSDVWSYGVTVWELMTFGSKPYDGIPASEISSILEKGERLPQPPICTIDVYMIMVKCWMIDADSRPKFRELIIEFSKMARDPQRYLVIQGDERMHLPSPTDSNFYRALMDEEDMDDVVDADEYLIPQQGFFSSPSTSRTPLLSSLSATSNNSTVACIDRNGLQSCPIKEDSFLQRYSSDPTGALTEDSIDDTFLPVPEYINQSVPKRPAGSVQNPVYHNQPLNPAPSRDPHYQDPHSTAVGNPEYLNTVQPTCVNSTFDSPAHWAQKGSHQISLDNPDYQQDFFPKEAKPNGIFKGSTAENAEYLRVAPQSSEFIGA
Summary of the method: as §1

Row | SMILES | remaining binding at 1 µM [1] [%] | remaining binding at 1 µM [2] [%] | remaining binding at 1 µM [3] [%] | remaining binding at 1 µM [4] [%] | remaining binding at 1 µM [5] [%] | remaining binding at 1 µM [6] [%] | remaining binding at 1 µM [7] [%] | remaining binding at 1 µM [8] [%]
1 | Cc1ccc(C(=O)Nc2ccc(CN3CCN(C)CC3)c(C(F)(F)F)c2)cc1C#Cc1cnc2c(Nc3cnn(C)c3)cccn12 [Example 1, 4-methyl-3-((8-((1-methyl-1H-pyrazol-4-yl)amino)imidazo[1,2-a]pyridin-3-yl)ethynyl)-N-(4-((4-methylpiperazin-1-yl)methyl)-3-(trifluoromethyl)phenyl)benzamide] | 0 | 33 | 1 | 99 | 3 | 84 | 3 | 1
2 | Cc1cn(-c2cc(NC(=O)c3ccc(C)c(C#Cc4cnc5c(Nc6cnn(C)c6)cccn45)c3)cc(C(F)(F)F)c2)cn1 [Example 12, 4-methyl-N-(3-(4-methyl-1H-imidazol-1-yl)-5-(trifluoromethyl)phenyl)-3-((8-((1-methyl-1H-pyrazol-4-yl)amino)imidazo[1,2-a]pyridin-3-yl)ethynyl)benzamide] | 3 | 58 | 84 | 99 | 62 | 100 | 69 | 22
3 | Cc1ccc(NC(=O)C2(C(=O)Nc3ccc(F)cc3)CC2)cc1C#Cc1cnc2c(Nc3cnn(C(C)C)c3)cccn12 [Example 78] | 63 | 100 | 100 | 95 | 100 | 100 | 97 | 92
